Test results: publication PMC11642016 (International Journal of Molecular Sciences, 2024)

Columns and labels:
[1] = test system: Fadu cells; test: CellTiter-Glo luminescent cell viability assay, Fadu; settings: 72 h, mean ± SD, n = 2; for Cell Viability (% of Control) 2.8 µM / Cell Viability (% of Control) 8.3 µM / Cell Viability (% of Control) 25 µM: Fadu
[2] = test system: PANC-1 and Fadu cells; test: CellTiter-Glo viability, statements covering both cancer cell lines; type: cell-based, human
Procedure: The effects of the synthesized compounds on cell viability were measured using the CellTiter-Glo® luminescent cell viability assay (Promega, Madison, WI, USA), according to the manufacturer’s instructions. […] After seeding, cells were incubated for a further 48 h before treatment. Cells were treated with the compounds for 72 h. […] After treatment, the luminescence signal was recorded using a microplate reader (BioTek Synergy 2 Multi-Mode Reader, BioTek, Winooski, VT, USA).

[3] = test system: PANC-1 cells; test: CellTiter-Glo luminescent cell viability assay, PANC-1; settings: 72 h, mean ± SD, n = 2; for Cell Viability (% of Control) 2.8 µM / Cell Viability (% of Control) 8.3 µM / Cell Viability (% of Control) 25 µM: PANC-1

For NCC#Cc1cccc(CN2C(=O)C3=C(CCN(Cc4ccc(-n5cc(-[c-]6cccc6)nn5)cc4)C3)N3CCN=C23)c1.[Fe+2].c1cc[cH-]c1 [2a], the “Cell Viability (% of Control) 2.8 µM” value ([1]; 2.8 µM, first-set screening) was 107 ± 5 % of Control, the “Cell Viability (% of Control) 2.8 µM” value ([1]; 2.8 µM, second-set screening) was 114 ± 8 % of Control and the “Cell Viability (% of Control) 8.3 µM” value ([1]; 8.3 µM, first-set screening) was 3 ± 0 % of Control. The “Cell Viability (% of Control) 8.3 µM” value ([1]; 8.3 µM, second-set screening) was 56 ± 9 % of Control, the “Cell Viability (% of Control) 25 µM” value ([1]; 25 µM, first-set screening) was 0 ± 0 % of Control and the “Cell Viability (% of Control) 25 µM” value ([1]; 25 µM, second-set screening) was 0 ± 0 % of Control. The “eradication of cancer cells at 8.3 µM” value ([2]; 8.3 µM, both PANC-1 and Fadu, first-set screening) was “practically complete eradication of both types of cancer cells”, the “Cell Viability (% of Control) 2.8 µM” value ([3]; 2.8 µM, first-set screening) was 92 ± 2 % of Control and the “Cell Viability (% of Control) 2.8 µM” value ([3]; 2.8 µM, second-set screening) was 117 ± 4 % of Control. The “Cell Viability (% of Control) 8.3 µM” value ([3]; 8.3 µM, first-set screening) was 0 ± 0 % of Control, the “Cell Viability (% of Control) 8.3 µM” value ([3]; 8.3 µM, second-set screening) was 92 ± 14 % of Control and the “Cell Viability (% of Control) 25 µM” value ([3]; 25 µM, first-set screening) was 0 ± 0 % of Control. The “Cell Viability (% of Control) 25 µM” value ([3]; 25 µM, second-set screening) was 0 ± 0 % of Control.
NCC#Cc1ccc(CN2C(=O)C3=C(CCN(Cc4cccc(-n5cc(-c6ccccc6)nn5)c4)C3)N3CCN=C23)cc1 [3b] was tested, and the viability at 2.8 µM ([1]; Homo sapiens, FaDu, read-out: Cell Viability (% of Control) 2.8 µM, Fadu, 2.8 µM, first-set screening) was 103 ± 2%, the viability at 8.3 µM ([1]; Homo sapiens, FaDu, read-out: Cell Viability (% of Control) 8.3 µM, Fadu, 8.3 µM, first-set screening) was 95 ± 3% and the viability at 25 µM ([1]; Homo sapiens, FaDu, read-out: Cell Viability (% of Control) 25 µM, Fadu, 25 µM, first-set screening) was 22 ± 4%. For the same molecule, the viability at 25 µM ([2]; Homo sapiens, 25 µM, in either of the cancer cell lines, read-out: drop in viability at 25 µM) was 0 to 1%, the viability at 2.8 µM ([3]; Homo sapiens, PANC-1, 72 h, read-out: Cell Viability (% of Control) 2.8 µM, PANC-1, 2.8 µM, first-set screening) was 103 ± 8% and the viability at 8.3 µM ([3]; Homo sapiens, PANC-1, 72 h, read-out: Cell Viability (% of Control) 8.3 µM, PANC-1, 8.3 µM, first-set screening) was 84 ± 2%. For the same molecule, the viability at 25 µM ([3]; Homo sapiens, PANC-1, 72 h, read-out: Cell Viability (% of Control) 25 µM, PANC-1, 25 µM, first-set screening) was 0%.
